Laboratory results reported in US20210308089A1, “METHODS OF TREATING AND/OR PREVENTING VIRAL INFECTIONS AND/OR DISEASES CAUSED BY VIRUSES IN A SUBJECT IN NEED THEREOF” (priority 2020, published 2021).

Assays:
[1] = test system: statin-treated hypertriglyceridemic patients with cardiovascular disease or at high risk for cardiovascular disease; assay: REDUCE-IT: safety, treatment-emergent adverse events (incl. bleeding, atrial fibrillation/flutter, gastrointestinal)
[2] = test system: symptomatic COVID-19 outpatients with positive SARS-CoV-2 test; assay: VASCEPA-COVID-19: FLU-PRO symptom prevalence and scores (and correlation with hs-CRP); type: in vivo, human
[3] = REDUCE-IT safety population, 4 g/day
[4] = serious bleeding TEAE, % of N = 4089
[5] = serious bleeding TEAE, number (%) of N = 4089
[6] = serious bleeding TEAE, patients, N = 4089

CC/C=C\C/C=C\C/C=C\C/C=C\C/C=C\CCCC(=O)OCC [icosapent ethyl, eicosapentaenoic acid ethyl ester]
Serious TEAE ([1]; % of N = 4089): (30.6%)
Serious TEAE Leading to Death ([1]; % of N = 4089): (2.3%)
Serious TEAE Leading to Withdrawal of Study Drug ([1]; % of N = 4089): (2.2%)
Subjects with at Least One TEAE ([1]; % of N = 4089): (81.8%)
TEAE Leading to Withdrawal of Study Drug ([1]; % of N = 4089): (7.9%)
Pneumonia, serious treatment-emergent adverse event: % of patients ([1]; N = 4089, safety population): 2.6%
Pneumonia, serious treatment-emergent adverse event: number of patients ([1]; N = 4089, safety population): 105
Anemia, adverse event rate [1, 3]: 4.7%
Atrial fibrillation, adverse event rate [1, 3]: 5.3%
Diarrhea, adverse event rate [1, 3]: 9%
Gastrointestinal adverse events, rate [1, 3]: 33.0%
Peripheral edema, adverse event rate [1, 3]: 6.5%
Atrial fibrillation or flutter requiring hospitalization (prespecified adjudicated tertiary endpoint) ([1]; REDUCE-IT, 4 g/day): 3.1%
Fatal bleeding events ([1]; REDUCE-IT, 4 g/day): no fatal bleeding events
Gastrointestinal bleeding (serious) ([1]; REDUCE-IT, 4 g/day): 1.5%
Serious central nervous system bleeding ([1]; REDUCE-IT, 4 g/day): 0.3%
Tolerability ([1]; REDUCE-IT, 4 g/day): well tolerated
Treatment-emergent serious adverse events for bleeding, rate ([1]; REDUCE-IT, 4 g/day): 2.7%
Gastrointestinal disorders ([1]; TEAE, system organ class, number (%) of N = 4089): 1350 (33.0%)
Anemia ([1]; TEAE, number (%) of N = 4089): 191 (4.7%)
Angina pectoris ([1]; TEAE, number (%) of N = 4089): 200 (4.9%)
Arthralgia ([1]; TEAE, number (%) of N = 4089): 313 (7.7%)
Atrial fibrillation ([1]; TEAE, number (%) of N = 4089): 215 (5.3%)
Back pain ([1]; TEAE, number (%) of N = 4089): 335 (8.2%)
Bronchitis ([1]; TEAE, number (%) of N = 4089): 306 (7.5%)
Cataract ([1]; TEAE, number (%) of N = 4089): 233 (5.7%)
Chest pain ([1]; TEAE, number (%) of N = 4089): 273 (6.7%)
Constipation ([1]; TEAE, number (%) of N = 4089): 221 (5.4%)
Cough ([1]; TEAE, number (%) of N = 4089): 241 (5.9%)
Diarrhea ([1]; TEAE, number (%) of N = 4089): 367 (9.0%)
Dizziness ([1]; TEAE, number (%) of N = 4089): 235 (5.7%)
Dyspnea ([1]; TEAE, number (%) of N = 4089): 254 (6.2%)
Fatigue ([1]; TEAE, number (%) of N = 4089): 228 (5.6%)
Gastroesophageal Reflux Disease ([1]; TEAE, number (%) of N = 4089): 124 (3.0%)
Hypertension ([1]; TEAE, number (%) of N = 4089): 320 (7.8%)
Influenza ([1]; TEAE, number (%) of N = 4089): 263 (6.4%)
Nasopharyngitis ([1]; TEAE, number (%) of N = 4089): 314 (7.7%)
Nausea ([1]; TEAE, number (%) of N = 4089): 190 (4.6%)
Osteoarthritis ([1]; TEAE, number (%) of N = 4089): 241 (5.9%)
Pain in extremity ([1]; TEAE, number (%) of N = 4089): 235 (5.7%)
Peripheral edema ([1]; TEAE, number (%) of N = 4089): 267 (6.5%)
Pneumonia ([1]; TEAE, number (%) of N = 4089): 263 (6.4%)
Upper respiratory tract infection ([1]; TEAE, number (%) of N = 4089): 312 (7.6%)
Urinary tract infection ([1]; TEAE, number (%) of N = 4089): 253 (6.2%)
Positively Adjudicated Atrial Fibrillation/Flutter ([1]; hospitalization for atrial fibrillation or atrial flutter, number (%) of N = 4089): 127 (3.1%)
Serious TEAE ([1]; number of subjects, N = 4089): 1252
Serious TEAE Leading to Death ([1]; number of subjects, N = 4089): 94
Serious TEAE Leading to Withdrawal of Study Drug ([1]; number of subjects, N = 4089): 88
TEAE Leading to Withdrawal of Study Drug ([1]; number of subjects, N = 4089): 321
Subjects with at Least One TEAE ([1]; number of subjects, Safety population N = 4089): 3343
Aortic Aneurysm Rupture [1, 4]: (0.0%)
Brain Contusion [1, 4]: (0.0%)
Catheter Site Hemorrhage [1, 4]: (0.0%)
Central Nervous System Bleeding [1, 4]: (0.3%)
Cerebral Hemorrhage [1, 4]: (0.0%)
Cystitis Hemorrhagic [1, 4]: (0.0%)
Diverticulitis Intestinal Hemorrhagic [1, 4]: (0.0%)
Diverticulum Intestinal Hemorrhagic [1, 4]: (0.1%)
Duodenal Ulcer Hemorrhage [1, 4]: (0.0%)
Ecchymosis [1, 4]: (0.0%)
Epistaxis [1, 4]: (0.2%)
Esophageal Hemorrhage [1, 4]: (0.0%)
Extravasation Blood [1, 4]: (0.0%)
Gastric Hemorrhage [1, 4]: (0.0%)
Gastric Ulcer Hemorrhage [1, 4]: (0.1%)
Gastrointestinal Angiodysplasia Hemorrhagic [1, 4]: (0.0%)
Gastrointestinal Bleeding [1, 4]: (1.5%)
Gastrointestinal Hemorrhage [1, 4]: (0.6%)
Genital Hemorrhage [1, 4]: (0.0%)
Hemarthrosis [1, 4]: (0.0%)
Hematemesis [1, 4]: (0.1%)
Hematochezia [1, 4]: (0.0%)
Hematoma [1, 4]: (0.0%)
Hematuria [1, 4]: (0.2%)
Hemoptysis [1, 4]: (0.0%)
Hemorrhagic Anemia [1, 4]: (0.1%)
Hemorrhagic Duodenitis [1, 4]: (0.0%)
Hemorrhagic Transformation Stroke [1, 4]: (0.0%)
Hemorrhoidal Hemorrhage [1, 4]: (0.1%)
Hemothorax [1, 4]: (0.0%)
Immune Thrombocytopenic Purpura [1, 4]: (0.0%)
Intra-Abdominal Hemorrhage [1, 4]: (0.0%)
Intracranial Hemorrhage [1, 4]: (0.0%)
Large Intestinal Hemorrhage [1, 4]: (0.0%)
Lower Gastrointestinal Hemorrhage [1, 4]: (0.1%)
Mallory-Weiss Syndrome [1, 4]: (0.0%)
Melaena [1, 4]: (0.1%)
Menorrhagia [1, 4]: (0.0%)
Mouth Hemorrhage [1, 4]: (0.0%)
Other Bleeding [1, 4]: (1.0%)
Pancreatitis Hemorrhagic [1, 4]: (0.0%)
Patients with Bleeding-Related Disorders [1, 4]: (2.7%)
Peptic Ulcer Hemorrhage [1, 4]: (0.0%)
Pericardial Hemorrhage [1, 4]: (0.0%)
Post Procedural Hematoma [1, 4]: (0.0%)
Post Procedural Hematuria [1, 4]: (0.0%)
Post Procedural Hemorrhage [1, 4]: (0.1%)
Rectal Hemorrhage [1, 4]: (0.2%)
Renal Hemorrhage [1, 4]: (0.0%)
Retinal Hemorrhage [1, 4]: (0.0%)
Retroperitoneal Hematoma [1, 4]: (0.0%)
Retroperitoneal Hemorrhage [1, 4]: (0.0%)
Shock Hemorrhagic [1, 4]: (0.0%)
Subarachnoid Hemorrhage [1, 4]: (0.0%)
Subdural Hematoma [1, 4]: (0.2%)
Subdural Hemorrhage [1, 4]: (0.0%)
Traumatic Hematoma [1, 4]: (0.0%)
Traumatic Intracranial Hemorrhage [1, 4]: (0.0%)
Ulcer Hemorrhage [1, 4]: (0.0%)
Upper Gastrointestinal Hemorrhage [1, 4]: (0.1%)
Urinary Bladder Hemorrhage [1, 4]: (0.0%)
Bleeding related disorders [1, 5]: 111 (2.7%)
Central Nervous System Bleeding [1, 5]: 14 (0.3%)
Gastrointestinal Bleeding [1, 5]: 62 (1.5%)
Other Bleeding [1, 5]: 41 (1.0%)
Aortic Aneurysm Rupture [1, 6]: 1
Brain Contusion [1, 6]: 0
Catheter Site Hemorrhage [1, 6]: 0
Central Nervous System Bleeding [1, 6]: 14
Cerebral Hemorrhage [1, 6]: 0
Cystitis Hemorrhagic [1, 6]: 2
Diverticulitis Intestinal Hemorrhagic [1, 6]: 0
Diverticulum Intestinal Hemorrhagic [1, 6]: 3
Duodenal Ulcer Hemorrhage [1, 6]: 2
Ecchymosis [1, 6]: 1
Epistaxis [1, 6]: 7
Esophageal Hemorrhage [1, 6]: 0
Extravasation Blood [1, 6]: 1
Gastric Hemorrhage [1, 6]: 1
Gastric Ulcer Hemorrhage [1, 6]: 3
Gastrointestinal Angiodysplasia Hemorrhagic [1, 6]: 1
Gastrointestinal Bleeding [1, 6]: 62
Gastrointestinal Hemorrhage [1, 6]: 26
Genital Hemorrhage [1, 6]: 1
Hemarthrosis [1, 6]: 0
Hematemesis [1, 6]: 3
Hematochezia [1, 6]: 1
Hematoma [1, 6]: 1
Hematuria [1, 6]: 8
Hemoptysis [1, 6]: 1
Hemorrhagic Anemia [1, 6]: 4
Hemorrhagic Duodenitis [1, 6]: 0
Hemorrhagic Transformation Stroke [1, 6]: 1
Hemorrhoidal Hemorrhage [1, 6]: 3
Hemothorax [1, 6]: 1
Immune Thrombocytopenic Purpura [1, 6]: 0
Intra-Abdominal Hemorrhage [1, 6]: 1
Intracranial Hemorrhage [1, 6]: 0
Large Intestinal Hemorrhage [1, 6]: 1
Lower Gastrointestinal Hemorrhage [1, 6]: 5
Mallory-Weiss Syndrome [1, 6]: 1
Melaena [1, 6]: 3
Menorrhagia [1, 6]: 1
Mouth Hemorrhage [1, 6]: 0
Other Bleeding [1, 6]: 41
Pancreatitis Hemorrhagic [1, 6]: 1
Patients with Bleeding-Related Disorders [1, 6]: 111
Peptic Ulcer Hemorrhage [1, 6]: 1
Pericardial Hemorrhage [1, 6]: 0
Post Procedural Hematoma [1, 6]: 1
Post Procedural Hematuria [1, 6]: 0
Post Procedural Hemorrhage [1, 6]: 5
Rectal Hemorrhage [1, 6]: 10
Renal Hemorrhage [1, 6]: 0
Retinal Hemorrhage [1, 6]: 1
Retroperitoneal Hematoma [1, 6]: 0
Retroperitoneal Hemorrhage [1, 6]: 1
Shock Hemorrhagic [1, 6]: 2
Subarachnoid Hemorrhage [1, 6]: 2
Subdural Hematoma [1, 6]: 9
Subdural Hemorrhage [1, 6]: 2
Traumatic Hematoma [1, 6]: 2
Traumatic Intracranial Hemorrhage [1, 6]: 0
Ulcer Hemorrhage [1, 6]: 1
Upper Gastrointestinal Hemorrhage [1, 6]: 3
Urinary Bladder Hemorrhage [1, 6]: 1
Total FLU-PRO symptom prevalence reduced by ([2]; 14+3-day follow-up): 52%
Reduction in chest/respiratory symptoms (FLU-PRO prevalence) ([2]; baseline to follow-up): 69%
Change in mean FLU-PRO score, total domain ([2]; baseline to follow-up, patients with non-zero treatment compliance): −0.16
